Experimental findings from the METLIN SMRT retention time set (Domingo-Almenara et al. 2019) are described below.

This data set can be described thus: gradient 5% acetonitrile 3 min, to 50% in 2 min, to 85% in 15 min, held 3 min, 100 µL/min. Particulars: column: Zorbax Extend-C18 2.1 x 50 mm; eluents: water / acetonitrile, 0.1% formic acid. In outline: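 Pure standards were run in mixtures of ~100 molecules by HPLC coupled to a quadrupole time-of-flight mass spectrometer. The column was a Zorbax Extend-C18 (2.1 × 50 mm, 1.8 μm) at 100 μL/min, with water and acetonitrile each containing 0.1% formic acid, in positive and negative ionization mode. Dead and dwell volumes were 40 μL and 900 μL. Retention time was taken from computationally picked adduct peaks, each manually inspected, with data collected over 3 months.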
Consider `O=C(Nc1ccc(Cl)cc1)C1CC(=O)N(CCc2c[nH]c3ccc(F)cc23)C1` (stereo not drawn), for which the RP-LC retention time was 857 s.

Turning to `Cc1nc(C(C)C)nc2c1CCC(=O)N2Cc1cccnc1`, the RP-LC retention time stood at 519 s.

Compound `O=C(NCC(=O)N1CCCc2ccccc21)c1cccs1` registered an RP-LC retention time of 761 s.

Compound `O=C(Cn1ncc2c(N3CCN(c4ccccn4)CC3)ncnc21)Nc1ccccc1Br` came in with an RP-LC retention time of 608 s.

`O=C(Nc1cc(Cl)ccc1F)C1CC(=O)N(c2ccc3c(c2)CCN3C(=O)C2CC2)C1` (stereo not drawn) came in with an RP-LC retention time of 835 s.

Compound `Cc1nc2c(NS(=O)(=O)c3ccc(Cl)cc3)cccn2n1` had an RP-LC retention time of 778 s.

`CCNS(=O)(=O)c1cccnc1Nc1cccc(F)c1` gave an RP-LC retention time of 963 s.

In turn, `C[C@@H](NC(=O)c1ccc(F)cc1)C(=O)NCc1cscn1` registered an RP-LC retention time of 627 s.

Consider `COc1cc(-c2noc(-c3cn(C)c4ccc(C)cc4c3=O)n2)cc(OC)c1OC`, for which the RP-LC retention time is 827 s.

For the compound `Cc1ccc(CNC(=O)c2ccc(Cn3nc(N4CCN(c5ccccc5)CC4)ccc3=O)o2)o1`, the RP-LC retention time came out at 706 s.

Turning to `CCOC(=O)c1noc2nc(C)nc(N3CCN(c4ccccc4)CC3)c12`, the RP-LC retention time came out at 643 s.

With `CC(C)Cc1cc(-c2nn3c(-c4cccc(Cl)c4)nnc3s2)n[nH]1`, the RP-LC retention time is 1080 s.

`COCCCNC(=O)Cn1ccc2c(SCc3ccc(C)cc3)nccc21`: the RP-LC retention time was 648 s.

As to `O=C(NCc1ccccc1F)c1cc(N2CCCC2)n2nccc2n1`, the RP-LC retention time turned out to be 994 s.

On to `COc1ccc(N2CCN(CCCNC(=O)NC3COc4ccc(OC)cc4C3)CC2)cc1` (stereo not drawn), for which the RP-LC retention time amounted to 687 s.

`CCOc1cc(-c2ccc(F)cc2)nc2ccc(C(=O)N3CCN(c4ccccn4)CC3)cc12` showed an RP-LC retention time of 624 s.

With `CCc1nnc(NC(=O)C2CCCN(c3ncnc4c3nc3n4CCCCC3)C2)s1` (stereo not drawn), the RP-LC retention time is 724 s.

For the compound `O=C(NCCC1=CCCCC1)C(=O)NCCN1CCN(c2ccc(F)cc2)CC1`, the RP-LC retention time was determined as 633 s.

Compound `Cc1ccc(CNC(=O)Cn2nc3cc(-c4ccccc4)nc(C)n3c2=O)cc1` showed an RP-LC retention time of 930 s.

As to `Cc1nc(-c2ccccc2)sc1C(=O)NC1CC1`, the RP-LC retention time was 799 s.

On to `COc1cc(NC(=O)COc2nc(C)nc3ccccc23)cc(OC)c1`, for which the RP-LC retention time worked out at 735 s.

For the compound `Cc1[nH]c(C(=O)N2CCC(CC(=O)NC3CCCCCC3)CC2)c(C)c1C(=O)OC(C)C`, the RP-LC retention time is 886 s.

`O=S(=O)(Cc1ccccc1Cl)N1CCc2nc(-c3ccc(F)cc3)ncc2C1` gave an RP-LC retention time of 1100 s.

Take `CN(C)Cc1c(C(=O)NCCOc2ccc(C(=O)NO)cc2)oc2ccccc12`: the RP-LC retention time stood at 628 s.

`CSCc1csc(NC(=O)COc2ccc(Cl)cc2)n1`: the RP-LC retention time amounted to 883 s.

Take `Cc1ccc(S(=O)(=O)N2CCC(CCC(=O)N3CCN(C)CC3)CC2)cc1`: the RP-LC retention time is 627 s.

As to `COc1ccc(CCNc2ncc(C(=O)O)c(C(C)C)n2)cc1OC`, the RP-LC retention time worked out at 820 s.

As for `CCc1ccccc1Nc1nc(-c2ccc(Cl)cc2)cs1`, the RP-LC retention time is 1310 s.

Take `CCn1cnc2cc(-c3noc(CNC(=O)c4ccco4)n3)ccc21`: the RP-LC retention time stood at 588 s.

In turn, `CN(C)c1ccc(CNC(=O)CCc2c(-c3ccc(Cl)cc3)nc3ccccn23)cc1` registered an RP-LC retention time of 588 s.

`Cc1cc(C)n(CC(=O)N2CCCn3ccnc3C2c2cnn(C)c2)n1` (stereo not drawn) showed an RP-LC retention time of 556 s.

Regarding `CCn1cc(-c2nc(C(=O)Nc3ccccc3C)cs2)c2cccnc21`, the RP-LC retention time is 1120 s.

For `O=c1n(Cc2c(F)cccc2Cl)nc2ccc(S(=O)(=O)N3CCCCCC3)cn12`, the RP-LC retention time came to 996 s.
